The test system of data set [1] is fed male Sprague-Dawley rats. In words: Conditioned-fear stress (CFS)-induced defication model. To be noted: wet weight of feces for 30 minutes. The class given is in vivo. The procedure:
Fed male Sprague-Dawley rats were used. The rats were put into an electric shock device having a grid set in the floor (17×17×39 cm, trade name: CB 2000 type, O'Hara), and conditioning was carried out after 3 seconds of a warning sound, by applying an electric current of 2.5 mA for 5 seconds per once per minute, a total of 15 times, and carrying out light irradiation by three 40 W electric bulbs at the time of the electric shock. The normal group was put into the measuring device by the same protocol, but the electric shock was not applied. After about 24 hours, the rats were again put into the electric shock device just after intraperitoneal administration of tested compound, and CFS loading was carried out by applying 3 seconds of warning sound and 5 seconds light irradiation for 30 minutes. Wet weights of excreted feces were measured for 30 minutes starting from the commencement of CFS loading. In this connection, the feces just after putting of the rats into the measuring device were excluded from measured values.

Data set [2] has as its system fed male Wistar rats. In words: Abdominal pain model by large intestinal distension using abdominal muscle contraction reaction as the index. The class given is in vivo. The procedure:
Fed male Wistar rats were used. Under pentobarbital anesthesia, an electrode for electromyogram use (trade name: M-1.5I, Star Medical) was sewed on the outer abdominal oblique muscle. The electrode cord was fished out from the body of around the back of the head through the skin and protected with a protective jacket prepared by processing Velcro. The test was carried out when 5 days or more passed after the surgical operation.
On the day of the test, a latex balloon of 5 to 6 cm in length was inserted from the rat anus under a light ether anesthesia and adjusted such that the balloon end is positioned at 2 cm from the anus. The catheter continuing from the balloon was fixed to the tail base with a tape and connected to a pressure transducer and a plastic bottle filled with water via a three-way cock. The plastic bottle was connected to a motor-aided device such that its height can be increased at a constant rate, and the colon-rectum was distended by increasing height of the plastic bottle. The balloon internal pressure signal was amplified using an amplifier for strain pressure use. After recovering from the ether anesthesia in a cage (23.5×19×19 cm), the colon-rectum distension was carried out. […] As a result, the abdominal muscle contracts and the electromyogram activities increase suddenly and sharply. The pressure at this point of time was regarded as the abdominal pain reflection threshold value. The electromyogram activities were amplified using an amplifier for bioelectric use (trade name: AB-621G, Nihon Kohden Corp.), and recorded by a data recording interface (trade name: 1401 plus, Cambridge Electronic Design, Cambridge, England). The colon-rectum distension was repeatedly carried out at intervals of 4 minutes until completion of the test. The compound was administered 2 minutes after completion of the measurement of the pre-administration value, and the colon-rectum distension was repeated until 60 minutes after the administration. […]

Data set [3] deals with T1, BB2 receptor (Homo sapiens, UniProt P30550).
T1 construct: endogenous in cells; host or cells: PC-3 human prostate cancer cells (membrane preparation)
Nature of the data set: BB2 receptor binding test (125I [Tyr4] bombesin, PC-3 cell membrane sample). The note with it: membrane sample of human prostate cancer-derived PC-3 cell; 125I [Tyr4] bombesin 0.075 nM; room temperature, 2 hours; read-out: 50% binding inhibition concentration. The procedure: A BB2 receptor binding test was carried out using a membrane sample prepared from a human prostate cancer-derived PC-3 cell. The PC-3 cell was cultured using RPMI-1640 medium containing 5% fetal bovine serum, and then a membrane sample was prepared by the following methods. The cells loosened by a trypsin treatment were mixed with 50 mM Tris-HCl buffer (pH 7.4, containing 0.2 mg/ml trypsin inhibitor and 0.2 mg/ml benzamidine) and homogenized by Polytron. The cell suspension was centrifuged at 1,500 rpm for 10 minutes, and the thus obtained supernatant was subjected to 1 hour of ultracentrifugation at 37,000 rpm. The precipitate was suspended in the aforementioned buffer to a concentration of 0.4 mg protein/ml and stored at −80° C.
The BB2 receptor binding test was carried out by the following method, and the receptor antagonistic activity of a compound to be tested was calculated. A 50 μl portion of the membrane sample, 50 μl of an assay buffer (20 mM HEPES-HBSS containing 0.1% bovine serum albumin and 0.1 mg/ml bacitracin, pH 7.4) ^125I [Tyr^4] bombesin (0.075 nM) and 2 μl of each compound to be tested dissolved in dimethyl sulfoxide were added to a 96 well assay plate and incubated at room temperature for 2 hours. Non-specific binding was measured using 1 μM of bombesin. After completion of the incubation, the reaction liquid was filtered through a Whatman GF/B filter which had been soaked in 0.5% polyethyleneimine. The radioactivity on the filter was measured using a microplate scintillation counter (Top Count, Perkin-Elmer).

For data set [4], the system named is fed male ddY mice. In words: Restraint stress-induced defication model. The class given is in vivo. The note with it: for 50% inhibition dose for restraint stress-induced defication: number of feces excreted during 1 hour of restraint. From the text:
RC-3095 was used by dissolving in physiological saline, and compound 1, compound 3 and compound 5 in physiological saline containing 5% ethanol+5% Cremophor, and compound 2 and compound 4 in water for injection containing 20% propylene glycol+20% Tween 80. Just after intraperitoneal administration of a compound to be tested to each of fed male ddY mice, the animal was put into a restraint stress cage (KN-469, Natsume Seisakusho). The number of feces excreted during a period of from the restriction commencement to 1 hour thereafter was measured. Normal group was put into a separate cage, and number of feces excreted during 1 hour was measured in the same manner.

Data set [5] concerns patients. The note with it: IBS patients; cited from earlier work.

T1 sequence (P30550 whole entry): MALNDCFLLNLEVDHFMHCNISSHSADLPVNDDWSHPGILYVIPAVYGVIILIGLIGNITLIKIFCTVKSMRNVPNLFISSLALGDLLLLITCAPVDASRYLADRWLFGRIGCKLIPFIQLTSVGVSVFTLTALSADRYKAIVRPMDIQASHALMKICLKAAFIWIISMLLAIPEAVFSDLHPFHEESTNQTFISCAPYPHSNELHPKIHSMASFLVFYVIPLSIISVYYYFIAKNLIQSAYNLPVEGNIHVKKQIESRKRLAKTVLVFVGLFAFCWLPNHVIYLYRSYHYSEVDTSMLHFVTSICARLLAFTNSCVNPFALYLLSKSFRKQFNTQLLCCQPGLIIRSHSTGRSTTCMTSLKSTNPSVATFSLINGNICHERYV

Turning to `CC(C)CC(CN[C@@H](CC(C)C)C(N)=O)NC(=O)[C@H](Cc1cnc[nH]1)NC(=O)CNC(=O)[C@@H](NC(=O)C(C)NC(=O)[C@H](Cc1c[nH]c2ccccc12)NC(=O)[C@H](CCC(N)=O)NC(=O)[C@H]1Cc2c([nH]c3ccccc23)CN1)C(C)C` (some centres unmarked) [RC-3095], the “effect on CFS-induced defication at 10 mg/kg (in words)” value in data set [1] (10 mg/kg intraperitoneal) is on record as “significant inhibitory action”. Besides, in data set [1] (intraperitoneal, FIG. 8), the “effect on CFS-induced defication (in words)” value was “dose-dependent inhibitory effect on the defication”. The “action on abdominal pain threshold value at 3 mg/kg (in words)” value in data set [2] (3 mg/kg, AUC of threshold values until 60 minutes) is listed as “significant increasing action”. For the same compound, the “action on abdominal pain threshold value at 10 mg/kg (in words)” value in data set [2] (10 mg/kg, AUC of threshold values until 60 minutes) is “significant increasing action”. For the same compound, the “action on abdominal pain threshold value (in words)” value in data set [2] (AUC of threshold values until 60 minutes after administration, FIG. 9) is listed as “dose-dependently increase abdominal pain threshold value”. Also, the IC50 in data set [3] was 20 nM. For the same compound, the “effect on restraint stress-induced defication (in words)” value in data set [4] (intraperitoneal, FIG. 2) was “dose-dependent inhibitory effect on the defication”. The “50% inhibition dose for restraint stress-induced defication” value (“50% inhibition dose” below) in data set [4] (intraperitoneal) was determined as 5.2 mg/kg.
Consider `Cc1[nH]cnc1CN1CCc2c(c3ccccc3n2C)C1=O` [alosetron], for which, in data set [5], the “improving rate for abdominal symptoms and diarrhea” value was 40 to 60%; the serious side effect entry is given as “ischemic colitis (including mortal cases)”.
As for `c1ccc(-c2sc(-c3ccccn3)nc2-c2cccc3ccccc23)cc1` [compound 1, 2-[4-(1-naphthyl)-5-phenyl-1,3-thiazol-2-yl]pyridine], in data set [3], the IC50 came out at 504 nM. Further, the “inhibitory effect on the defication” value in data set [4] (10 mg/kg intraperitoneal, number of feces during 1 hour of restraint) is given as “about 83%”.
For the compound `O=C(/C=C/c1ccc(-c2ccc([N+](=O)[O-])cc2)o1)c1ccccc1` [compound 2, (2E)-3-[5-(4-nitrophenyl)-2-furyl]-1-phenyl-2-propen-1-one], in data set [3], the IC50 turned out to be 1330 nM. Moreover, the “50% inhibition dose” value in data set [4] (intraperitoneal) came to 34.3 mg/kg.
In the same order, the values of `O=C(Nc1ccc(S(=O)(=O)N2CCCCC2c2cccnc2)cc1)c1cc([N+](=O)[O-])ccc1Cl` (centres unmarked) [compound 3, 2-chloro-5-nitro-N-(4-{[2-(pyridin-3-yl)piperidin-1-yl]sulfonyl}phenyl)benzamide] are 342 nM and 19.0 mg/kg.
`COc1ccc(N(CC(=O)Nc2ccc(Cl)cc2C)S(=O)(=O)c2ccccc2)cc1OC` [compound 4]: the IC50 in data set [3] was found to be 398 nM. In data set [4] (intraperitoneal), the “50% inhibition dose” value was 13.5 mg/kg.
`COc1cc(OC)cc(C(=O)Nc2sc3c(c2-c2nc4ccccc4s2)CCN(C(C)C)C3)c1.Cl` [compound 5, N-[3-(1,3-benzothiazol-2-yl)-6-isopropyl-4,5,6,7-tetrahydrothieno[2,3-c]pyridin-2-yl]-3,5-dimethoxybenzamide hydrochloride]: the IC50 in data set [3] stood at 383 nM. Besides, in data set [4] (intraperitoneal), the “50% inhibition dose” value is 15.6 mg/kg.

Source of the values: patent US8101580B2, “Therapeutic agent for irritable bowel syndrome” (Astellas Pharma Inc., priority 2005, dated 2012).
